Test results reported in US8557821B2 (priority 2009, dated 2013).
Several values for one entry are separate records, joined by “and”; a condition that tells them apart may be missing. Equal entries are not always repeated.

Legend:
Phytophthora infestans = assay: whole plant or invertebrate; assay type: in vivo; details: in Solanum lycopersicum, foliar, read-out: disease control
Plasmopara viticola = assay: Plasmopara viticola/Grape/Leaf Disc Preventative (Grape Downy Mildew); assay type: in vivo; details: foliar, grape vine leaf disks, inoculated 1 day after application, assessed 6-8 days after application, read-out: disease control
Experimental: Plasmopara viticola/Grape/Leaf Disc Preventative (Grape Downy Mildew)
Grape vine leaf disks are placed on water agar in multiwell plates (24-well format) and sprayed with the formulated test compound diluted in water. The leaf disks are inoculated with a spore suspension of the fungus 1 day after application. The inoculated leaf disks are incubated at 19° C. and 80% rh under a light regime of 12 h light/12 h darkness in a climate cabinet and the activity of a compound is assessed as percent disease control compared to untreated when an appropriate level of disease damage appears in untreated check leaf disks (6-8 days after application).

`Cc1cc(C(F)(F)F)nn1CC(=O)N1CCC(c2nc(NC(=O)[C@@H]3CCCc4ccccc43)cs2)CC1` [I.g.001, (R)-1,2,3,4-tetrahydro-naphthalene-1-carboxylic acid (2-{1-[2-(5-methyl-3-trifluoromethyl-pyrazol-1-yl)-acetyl]-piperidin-4-yl}-thiazol-4-yl)amide] showed a pest or weed control at 200 ppm (Phytophthora infestans) of at least 80%, a pest or weed control at 200 ppm (Plasmopara viticola) of at least 80% and a melting point of 175 °C.

For `Cc1cc(C(F)(F)F)nn1CC(=O)N1CCC(c2nc(NC(=O)C3CCCc4ccccc43)cs2)CC1` (centres unmarked) [I.g.011, 1,2,3,4-tetrahydro-naphthalene-1-carboxylic acid (2-{1-[2-(5-methyl-3-trifluoromethyl-pyrazol-1-yl)-acetyl]-piperidin-4-yl}-thiazol-4-yl)amide], the pest or weed control at 200 ppm (Phytophthora infestans) was at least 80%, the pest or weed control at 200 ppm (Plasmopara viticola) was at least 80% and the melting point was 179 to 181 °C and 179.2 to 181.3 °C.

With `Cc1cc(C(F)(F)F)nn1CC(=O)N1CCC(c2nc(NC(=O)OC3CCCc4ccccc43)cs2)CC1` (centres unmarked) [I.g.013, (2-{1-[2-(5-methyl-3-trifluoromethyl-pyrazol-1-yl)-acetyl]-piperidin-4-yl}-thiazol-4-yl)-carbamic acid 1,2,3,4-tetrahydro-naphthalen-1-yl ester] the pest or weed control at 200 ppm (Phytophthora infestans) was at least 80% and the pest or weed control at 200 ppm (Plasmopara viticola) was at least 80%.

In the case of `Cc1cc(C(F)(F)F)nn1CC(=O)N1CCC(c2nc(NC(=O)Nc3ccccc3)cs2)CC1` [I.g.024, 1-(2-{1-[2-(5-methyl-3-trifluoromethyl-pyrazol-1-yl)-acetyl]-piperidin-4-yl}-thiazol-4-yl)-3-phenyl-urea], the pest or weed control at 200 ppm (Phytophthora infestans) is reported as at least 80%, the pest or weed control at 200 ppm (Plasmopara viticola) is reported as at least 80% and the melting point is reported as 192.6 °C.

With `Cc1ccc(C)c(CC(=O)N2CCC(c3nc(NC(=O)C4CCCc5ccccc54)cs3)CC2)c1` (centres unmarked) [I.g.136, 1,2,3,4-tetrahydro-naphthalene-1-carboxylic acid (2-{1-[2-(2,5-dimethylphenyl)-acetyl]-piperidin-4-yl}-thiazol-4-yl)-amide] the pest or weed control at 200 ppm (Phytophthora infestans) was at least 80%.

Compound `Cc1ccc(C)c(CS(=O)(=O)N2CCC(c3nc(NC(=O)c4ccccc4)cs3)CC2)c1` [I.g.246, N-{2-[1-(2,5-Dimethyl-phenylmethanesulfonyl)-piperidin-4-yl]-thiazol-4-yl}-benzamide] has a pest or weed control at 200 ppm (Plasmopara viticola) of at least 80% and a melting point of 173 to 175 °C.

In the case of `Cc1ccccc1CC(=O)N1CCC(c2nc(NC(=O)C3CCCc4ccccc43)cs2)CC1` (centres unmarked) [I.g.386, 1,2,3,4-tetrahydro-naphthalene-1-carboxylic acid {2-[1-(2-o-tolyl-acetyl)-piperidin-4-yl]thiazol-4-yl}-amide], the pest or weed control at 200 ppm (Phytophthora infestans) is reported as at least 80%, the pest or weed control at 200 ppm (Plasmopara viticola) is reported as at least 80% and the melting point is reported as 174 to 175 °C.

In the case of `Cc1cc(C(F)(F)F)nn1CC(=O)N1CCC(c2nc(NC(=O)c3cccc(F)c3O)cs2)CC1` [I.g.501, 3-fluoro-2-hydroxy-N-(2-{1-[2-(5-methyl-3-trifluoromethyl-pyrazol-1-yl)-acetyl]-piperidin-4-yl}-thiazol-4-yl)-benzamide], the pest or weed control at 200 ppm (Phytophthora infestans) is reported as at least 80% and the pest or weed control at 200 ppm (Plasmopara viticola) is reported as at least 80%.

Work on `Cc1cc(C(F)(F)F)nn1CC(=O)N1CCC(c2nc(NC(=O)c3cccc(Br)c3O)cs2)CC1` [I.g.502, 3-bromo-2-hydroxy-N-(2-{1-[2-(5-methyl-3-trifluoromethyl-pyrazol-1-yl)-acetyl]-piperidin-4-yl}-thiazol-4-yl)-benzamide] yielded a melting point of 193 to 195 °C.

`Cc1cc(C(F)(F)F)nn1CC(=O)N1CCC(c2nc(NC(=O)c3ccccc3O)cs2)CC1` [I.g.503, 2-hydroxy-N-(2-{1-[2-(5-methyl-3-trifluoromethyl-pyrazol-1-yl)-acetyl]-piperidin-4-yl}-thiazol-4-yl)-benzamide] showed a pest or weed control at 200 ppm (Phytophthora infestans) of at least 80% and a pest or weed control at 200 ppm (Plasmopara viticola) of at least 80%.

For `Cc1ccc(S(=O)(=O)Nc2ccccc2C(=O)Nc2csc(C3CCN(C(=O)Cn4nc(C(F)(F)F)cc4C)CC3)n2)cc1` [I.g.508, N-(2-{1-[2-(5-methyl-3-trifluoromethyl-pyrazol-1-yl)-acetyl]-piperidin-4-yl}-thiazol-4-yl)-2-(toluene-4-sulfonylamino)-benzamide], the pest or weed control at 200 ppm (Phytophthora infestans) was at least 80% and the pest or weed control at 200 ppm (Plasmopara viticola) was at least 80%.

Compound `COc1cccc(O)c1C(=O)Nc1csc(C2CCN(C(=O)Cn3nc(C(F)(F)F)cc3C)CC2)n1` [I.g.509, 2-methoxy-6-hydroxy-N-(2-{1-[2-(5-methyl-3-trifluoromethyl-pyrazol-1-yl)-acetyl]-piperidin-4-yl}-thiazol-4-yl)-benzamide] has a pest or weed control at 200 ppm (Phytophthora infestans) of at least 80% and a pest or weed control at 200 ppm (Plasmopara viticola) of at least 80%.

`Cc1cc(C(F)(F)F)nn1CC(=O)N1CCC(c2nc(NC(=O)c3c(O)cccc3F)cs2)CC1` [I.g.510, 2-fluoro-6-hydroxy-N-(2-{1-[2-(5-methyl-3-trifluoromethyl-pyrazol-1-yl)-acetyl]-piperidin-4-yl}-thiazol-4-yl)-benzamide] showed a pest or weed control at 200 ppm (Phytophthora infestans) of at least 80% and a pest or weed control at 200 ppm (Plasmopara viticola) of at least 80%.

Compound `COc1cccc(C(=O)Nc2csc(C3CCN(C(=O)Cn4nc(C(F)(F)F)cc4C)CC3)n2)c1O` [I.g.511, 3-methoxy-2-hydroxy-N-(2-{1-[2-(5-methyl-3-trifluoromethyl-pyrazol-1-yl)-acetyl]-piperidin-4-yl}-thiazol-4-yl)-benzamide] has a pest or weed control at 200 ppm (Phytophthora infestans) of at least 80%.

With `Cc1cc(C(F)(F)F)nn1CC(=O)N1CCC(c2nc(N(C)C(=O)C3CCCc4ccccc43)cs2)CC1` (centres unmarked) [I.h.011, 1,2,3,4-tetrahydro-naphthalene-1-carboxylic acid methyl-(2-{1-[2-(5-methyl-3-trifluoromethyl-pyrazol-1-yl)-acetyl]-piperidin-4-yl}-thiazol-4-yl)-amide] the pest or weed control at 200 ppm (Phytophthora infestans) was at least 80%.

Work on `Cc1cc(C(F)(F)F)nn1CC(=O)N1CCN(c2nc(NC(=O)C3CCCc4ccccc43)cs2)CC1` (centres unmarked) [I.n.011, 1,2,3,4-Tetrahydro-naphthalene-1-carboxylic acid (2-{4-[2-(5-methyl-3-trifluoromethyl-pyrazol-1-yl)acetyl]-piperazin-1-yl}-thiazol-4-yl)amide] yielded a pest or weed control at 200 ppm (Phytophthora infestans) of at least 80%, a pest or weed control at 200 ppm (Plasmopara viticola) of at least 80% and a melting point of 207 to 209 °C.

With `Cc1cc(C(F)(F)F)nn1CC(=O)N1CCN(c2nc(NC(=O)c3ccccc3)cs2)CC1` [I.n.021, N-(2-{4-[2-(5-methyl-3-trifluoromethyl-pyrazol-1-yl)-acetyl]-piperazin-1-yl}-thiazol-4-yl)-benzamide] the pest or weed control at 200 ppm (Phytophthora infestans) was at least 80% and the pest or weed control at 200 ppm (Plasmopara viticola) was at least 80%.
